According to patent US20240246918A1, “COMPOUNDS AND COMPOSITIONS AS EIF4E INHIBITORS AND THE USES THEREOF” (Ribometrix, Inc., priority 2022, published 2024):

What was measured:
[1] = system: cyclin D1 protein levels in COLO 205 cells; test: Cyclin D1 cellular inhibition assay (HTRF, 6 hours); type: cell-based; conditions: Homo sapiens, COLO 205, 6 h, 6 hours of compound treatment, Cyclin D1 protein levels by HTRF, read-out: COLO 205 6 h Cyclin D1 TR-FRET IC50
Experimental: The effect of compound treatment on cyclin D1 protein levels in COLO 205 cells was assessed, as follows. Test compound plates were prepared with a Tecan D300e Digital Dispenser as 11-point concentration-response curves with a final DMSO concentration of 1%. COLO 205 (ATCC, CCL-222) colorectal tumor cells were seeded to assay-ready plates in RPMI-1640 medium supplemented with 10% FBS at 20,000 cells in a volume of 6 microliters per well. After 6 hours of compound treatment, cells were lysed and Cyclin D1 protein levels were assessed by an HTRF assay (PerkinElmer #64CYCD1ITPEG), according to the manufacturer's protocol. Time-resolved fluorescence was measured using a Clariostar Plus microplate reader (BMG Labtech) or equivalent. After normalization to the average of DMSO control and maximum inhibition control wells, concentration-response data were plotted and standard 4-parameter curve fitting (GraphPad Prism v9.4.1) was utilized to determine IC50 values.

human eIF4E protein = target: T1, human eIF4E protein (Homo sapiens, UniProt P06730); test: Biochemical competitive binding assay (TR-FRET competition, EDA-m7GDP-ATTO-647N probe); conditions: read-out: hEIF4E TR-FRET IC50
T1 construct: purchased Novus NBP-45314
T1 sequence (P06730 whole entry): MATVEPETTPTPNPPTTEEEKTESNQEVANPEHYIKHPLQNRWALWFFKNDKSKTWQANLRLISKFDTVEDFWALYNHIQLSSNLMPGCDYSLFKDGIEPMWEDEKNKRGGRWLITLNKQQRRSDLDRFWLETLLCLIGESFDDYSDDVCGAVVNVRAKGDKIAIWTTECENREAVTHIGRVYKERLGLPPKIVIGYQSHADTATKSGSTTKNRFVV
Procedure, shortened: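 IC50 values come from 4-parameter fits of the normalized 665/620 nm TR-FRET ratio. Compound was first incubated 15 min with 4 nM recombinant His-eIF4E bound to 2.5 nM Eu-anti-His antibody, then 15 min with 5 nM m7GDP-ATTO-647N tracer, in pH 7.5 HEPES buffer with 100 mM KCl, Tween-20 and BSA.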

[2] = system: COLO 205 colorectal tumor cells; test: Tumor cell viability inhibition assay (CellTiter-Glo 2.0, 72 hours); type: cell-based; conditions: Homo sapiens, COLO 205, 72 h, COLO 205 cell viability
Procedure, shortened: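 IC50 derived by 4-parameter fitting after normalizing luminescence to DMSO and max-inhibition wells. Compounds tested as 11 concentrations in 4-fold steps on COLO 205 cells seeded at 1500 per well in RPMI-1640/10% FBS; ATP content measured with CellTiter-Glo 2.0 after 72 h.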

| IC50 [1] | IC50 (human eIF4E protein) | IC50 [2] | Structure (SMILES) |
| --- | --- | --- | --- |
| > 20 µM | < 0.1 µM | > 20 µM | Cc1cc(-c2cc(Cl)ccc2OCCn2c(C)nc3c(c2=O)C[C@H](N(C)C[C@H]2C[C@](C)(O)C2)CC3)c2scc(C(=O)O)c2n1 (relative stereo) [Compound 210] |
| < 5 µM | < 0.1 µM | < 5 µM | Cc1cc(-c2cc(Cl)ccc2OCCn2c(C)nc3c(c2=O)C[C@H](N2CCC[C@@]4(C2)CC4(F)F)CC3)c2scc(C(=O)O)c2n1 (single isomer, unassigned) [Compound 139] |
| < 5 µM | < 0.1 µM | < 5 µM | Cc1cc(-c2cc(Cl)ccc2OCCn2c(C)nc3c(c2=O)C[C@@H](N2CCC[C@]4(C2)CC4(F)F)CC3)c2scc(C(=O)O)c2n1 (single isomer, unassigned) [Compound 140] |
| < 5 µM | < 0.1 µM | < 5 µM | Cc1cc(-c2cc(Cl)ccc2OCCn2c(C)nc3c(c2=O)C[C@@H](N2CCC[C@@]4(C2)CC4(F)F)CC3)c2scc(C(=O)O)c2n1 (single isomer, unassigned) [Compound 141] |
| < 5 µM | < 0.1 µM | < 5 µM | Cc1cc(-c2cc(Cl)ccc2OCCn2c(C)nc3c(c2=O)C[C@H](N2C[C@@H]4CC(F)(F)[C@@H]4C2)CC3)c2scc(C(=O)O)c2n1 (single isomer, unassigned) [Compound 146] |
| < 5 µM | < 0.1 µM | < 5 µM | Cc1cc(-c2cc(Cl)ccc2OCCn2c(C)nc3c(c2=O)C[C@H](N2C[C@H]4CC(F)(F)[C@H]4C2)CC3)c2scc(C(=O)O)c2n1 (single isomer, unassigned) [Compound 147] |
| < 5 µM | < 0.1 µM | < 5 µM | Cc1cc(-c2cc(Cl)ccc2OCCn2c(C)nc3c(c2=O)C[C@@H](N2C[C@H]4CC(F)(F)[C@H]4C2)CC3)c2scc(C(=O)O)c2n1 (single isomer, unassigned) [Compound 148] |
| < 5 µM | < 0.1 µM | < 5 µM | Cc1cc(-c2cc(Cl)ccc2OCCn2c(C)nc3c(c2=O)C[C@@H](N2C[C@@H]4CC(F)(F)[C@@H]4C2)CC3)c2scc(C(=O)O)c2n1 (single isomer, unassigned) [Compound 149] |
| < 5 µM | < 0.1 µM | < 5 µM | Cc1cc(-c2cc(Cl)ccc2OCCn2c(C)nc3c(c2=O)C[C@H](N2C[C@H]4CCC(F)(F)[C@H]4C2)CC3)c2scc(C(=O)O)c2n1 (single isomer, unassigned) [Compound 166] |
| < 5 µM | < 0.1 µM | < 5 µM | Cc1cc(-c2cc(Cl)ccc2OCCn2c(C)nc3c(c2=O)C[C@H](N2C[C@@H]4CCC(F)(F)[C@@H]4C2)CC3)c2scc(C(=O)O)c2n1 (single isomer, unassigned) [Compound 167] |
| < 5 µM | < 0.1 µM | < 5 µM | Cc1cc(-c2cc(Cl)ccc2OCCn2c(C)nc3c(c2=O)C[C@@H](N2C[C@H]4CCC(F)(F)[C@H]4C2)CC3)c2scc(C(=O)O)c2n1 (single isomer, unassigned) [Compound 168] |
| < 5 µM | < 0.1 µM | < 5 µM | Cc1cc(-c2cc(Cl)ccc2OCCn2c(C)nc3c(c2=O)C[C@@H](N2C[C@@H]4CCC(F)(F)[C@@H]4C2)CC3)c2scc(C(=O)O)c2n1 (single isomer, unassigned) [Compound 169] |
| > 20 µM | < 0.1 µM | > 20 µM | Cc1cc(-c2cc(Cl)ccc2OCCn2c(C)nc3c(c2=O)C[C@H](N(C)[C@H]2CC[C@@](C)(O)C2)CC3)c2scc(C(=O)O)c2n1 (single isomer, unassigned) [Compound 183] |
| > 20 µM | < 0.1 µM | > 20 µM | Cc1cc(-c2cc(Cl)ccc2OCCn2c(C)nc3c(c2=O)C[C@@H](N(C)[C@H]2CC[C@](C)(O)CC2)CC3)c2scc(C(=O)NS(C)(=O)=O)c2n1 (single isomer, unassigned) [Compound 206] |
